{
  "source": "patent US20240124510A1",
  "about": "“Cyclic Glycoaminoacid Derivatives” (TFCHEM, priority 2021, published 2024)",
  "key": {"procollagen I": {"tested_on": "procollagen I", "assay": "Procollagen I secretion in coculture of human aged fibroblasts and mature adipocytes (ELISA)", "assay_type": "cell-based", "conditions": "for secretion of Procollagen I, normalized by fibroblasts number, in percentage of the coculture control condition, Values: individual replicates", "description": "In order to evaluate its effect on fibroblast matrix and its anti-inflammatory properties, the effect of compound 6 has been tested on an adipocytes-aged fibroblasts coculture model, mimicking the interactions between dermis and hypodermis in the skin and allowed to explore in parallel the biological effects of the products on two cellular targets.\n• Experimental model: co-culture of human mature adipocytes cultured in 3D and human dermal fibroblasts cultured in 2D (AM3D-FB2D co-culture). This experimental model of AM3D-FB2D co-culture mimicked the interactions between dermis and hypodermis in the skin and allowed to explore in parallel the biological effects of the products on two cellular targets. • Donor characteristics: This study was performed on mature adipocytes and fibroblasts from two different donors (one donor for mature adipocytes and another donor for dermal fibroblasts). • Fibroblasts donor=person, BMI=28 kg/m^2 • Adipocytes donor=person, BMI=21.4 kg/m^2 • Treatment procedure: compound 6 was added to the co-culture medium daily for up to 6 days\nDermal fibroblasts were seeded in DMEM 10% FBS at 10000 cells/well. The day after, the adipocytes capsules of 50 μl were added in suspension above the fibroblasts and the medium was changed and replaced by a specific culture medium for the co-culture AM3D-FB2D. The formation of adipocytes capsules followed an internal standardized protocol. Briefly, the fully mature adipocytes were isolated from the hypodermis after digestion by collagenase. The isolated adipocytes were then washed with a wash buffer and encapsulated in a peptidic hydrogel to form 3D adipocytes capsules of 50 μl in size. Cells were incubated at 37° C. and 5% CO2 overnight for stabilization. Treatments were initiated at DO with a medium change at DO, D2, D3 and D5. The entire culture media of 24 h incubation was collected at D3 and D6, before being centrifugated and stored at −80° C. Each culture condition was done in triplicate.\nThe biochemical analyses on culture media were performed via ELISA using specific kits according to the manufacturer's recommendations: IL-6 (Duoset DY206, R&D Systems), and Hyaluronic Acid (HA) (Duoset, DY3614-05, R&D Systems and Procollagen I (Duoset, DY6220-05, R&D Systems) The results of HA and Procollagen I were normalized by fibroblasts cell number regarding the fact that these molecules were secreted mainly by fibroblasts. All the biochemical results were represented in percentage of the control condition.\nTo evaluate the effect of the compound 6 on fibroblasts' matrix, the extracellular concentrations of Procollagen I, that is secreted only by the fibroblasts, were measured at D3 and D6."}, "MCP1": {"tested_on": "MCP1", "assay": "Extracellular secretion of MCP1 by preadipocytes in inflammatory condition (ELISA)", "assay_type": "cell-based, human", "conditions": "for MCP1 secretion, Mean (%) / MCP1 secretion, Values (%): inflammatory condition, normalized by cells number (Dapi); for MCP1 secretion, Values (%): individual values; for MCP1 secretion compared to the AcMC control condition fixed at 100%: differentiated preadipocytes", "protocol": "Preadipocytes have been isolated from human female hypodermis (body mass index <30 kg/m2 and <45 years old). Preadipocytes have been cultured for 24 h in 100 μl of DMEM-10% Fetal Bovine Serum (FBS) in 96-well plates. Then cells were treated to induce their differentiation in a classical or an inflammatory environment for 13 days.\nTo induce the preadipocytes differentiation cells were incubated in a proadipogenic cocktail (PAC) including insulin, glucocorticoid, 3-isobutyl-1-methylxanthine (IBMX), and thiazolinedione in DMEM.\nTo induce a fibro-inflammatory environment, cells were treated with an activated human macrophage-conditioned medium (AcMC) prepared in RPMI medium. A treatment with Dexamethasone (DXM) at 100 nM was used as anti-inflammatory response control. At D0: preadipocytes have been treated in the following conditions: • “Undifferentiation”: DMEM+¼ RPMI medium • “Differentiation”: PAC+¼ RPMI medium • “AcMC” i.e. inflammatory condition: PAC+¼ AcMC • “AcMC+DXM”: PAC+[…] AcMC+anti-inflammatory DXM at 100 nM • “AcMc+compounds”: PAC+14 AcMC+compounds to be tested\nAll conditions have been performed in triplicate. The medium has been changed every 2 days for 13 days.\nAt D14: during the last 24 h of culture, the medium has been replaced by DMEM/F12 medium in all conditions, to collect cells' secretions.\nAfter 13 days, the 24 h culture media of the different conditions have been collected at the end of the treatment period. The concentrations of IL-6, procollagen I and MCP1 have been evaluated by ELISA assays using specific kits (for IL-6: DY206, DuoSet ELISA, R&D Systems; for Procollagen I: DY6220-05, DuoSet ELISA, R&D Systems; for MCP1: DY279-05 DuoSet ELISA, R&D Systems) according to the manufacture's recommendations. Values have been normalized to the cell number determined by DAPI staining.\nQuantity of MCP1 secreted in medium was measured and was normalized by cell number in each culture condition. Data are represented in percentage of proinflammatory control condition (AcMC condition)."}, "Human dermal fibroblasts": {"tested_on": "Human dermal fibroblasts", "assay": "Cytotoxicity (LDH release) on dermal fibroblasts in classical condition", "assay_type": "cell-based", "conditions": "for Cytotoxicity (LDH release), Mean / Cytotoxicity (LDH release), Values: during 24 h after 11 days of culture, normalized by cell number; for Cytotoxicity (LDH release), Values: individual values", "protocol": "Human dermal fibroblasts were isolated from skin tissue by dermis explants seeding in Petri dishes in DMEM-20% FBS for 3 weeks. Dermal fibroblasts were then seeded in 96-well plates and then incubated in different culture conditions described below.\nDifferent culture conditions were realized in triplicate at least: • Positive control of cytotoxicity: cells in DMEM 1% FBS medium lysed by 0.2% triton at the end of the culture period • Control: cells in DMEM 1% FBS medium • Test: cells in DMEM 1% FBS medium added with test compound 6 and compound 44 of WO2015/140178.\nCytotoxicity was assessed by the measurement of the lactate dehydrogenase (LDH) released by damaged cells in the culture medium (using the kit CytoTox-One Non-Radioactive Cytotoxicity Assay, G1780, Promega). Cells were treated with 0.2% of triton at the end of the culture to determine the maximal toxicity response. […]\nThe results were normalized by cell number, determined by nuclei staining (with DAPI: 4′,6-Diamidino-2-Phenylindole, Dihydrochloride), and were represented in percentage of the lysis positive control. Compounds presenting a level of cytotoxicity below 20% compared to control were considered as non-toxic.\nQuantity of LDH released by cells was normalized by cell number in each culture condition. Data are represented in percentage of the positive control."}},
  "note": "Values joined by “and” are separate entries in the source; they are usually repeats but may differ in a detail not shown here. Equal values may be shown once.",
  "data": [
    {"smiles": "N[C@H]1CCCN(CC(F)(F)[C@]2(O)O[C@H](CO)[C@H](O)[C@H](O)[C@H]2O)C1=O", "note": "[Compound 6]", "values": [
      {"measurement": "secretion of Procollagen I, normalized by fibroblasts number, in percentage of the coculture control condition, Mean", "setting": "procollagen I; D3, 1 mg/ml", "result": 163, "unit": "%"},
      {"measurement": "secretion of Procollagen I, normalized by fibroblasts number, in percentage of the coculture control condition, Values", "setting": "procollagen I; D3, 1 mg/ml", "result": "162% and 158% and 168%"},
      {"measurement": "secretion of Procollagen I, normalized by fibroblasts number, in percentage of the coculture control condition, Mean", "setting": "procollagen I; D3, 2 mg/ml", "result": 159, "unit": "%"},
      {"measurement": "secretion of Procollagen I, normalized by fibroblasts number, in percentage of the coculture control condition, Values", "setting": "procollagen I; D3, 2 mg/ml", "result": "177% and 144% and 157%"},
      {"measurement": "secretion of Procollagen I, normalized by fibroblasts number, in percentage of the coculture control condition, Mean", "setting": "procollagen I; D3, 3 mg/ml", "result": 173, "unit": "%"},
      {"measurement": "secretion of Procollagen I, normalized by fibroblasts number, in percentage of the coculture control condition, Values", "setting": "procollagen I; D3, 3 mg/ml", "result": "202% and 78% and 238%"},
      {"measurement": "secretion of Procollagen I, normalized by fibroblasts number, in percentage of the coculture control condition, Mean", "setting": "procollagen I; D6, 1 mg/ml", "result": 418, "unit": "%"},
      {"measurement": "secretion of Procollagen I, normalized by fibroblasts number, in percentage of the coculture control condition, Values", "setting": "procollagen I; D6, 1 mg/ml", "result": "312% and 472% and 469%"},
      {"measurement": "secretion of Procollagen I, normalized by fibroblasts number, in percentage of the coculture control condition, Mean", "setting": "procollagen I; D6, 2 mg/ml", "result": 411, "unit": "%"},
      {"measurement": "secretion of Procollagen I, normalized by fibroblasts number, in percentage of the coculture control condition, Values", "setting": "procollagen I; D6, 2 mg/ml", "result": "284% and 488% and 460%"},
      {"measurement": "secretion of Procollagen I, normalized by fibroblasts number, in percentage of the coculture control condition, Mean", "setting": "procollagen I; D6, 3 mg/ml", "result": 474, "unit": "%"},
      {"measurement": "secretion of Procollagen I, normalized by fibroblasts number, in percentage of the coculture control condition, Values", "setting": "procollagen I; D6, 3 mg/ml", "result": "515% and 398% and 508%"},
      {"measurement": "MCP1 secretion, Mean (%)", "setting": "MCP1; 1 mg/ml", "result": "71 % of AcMC condition"},
      {"measurement": "MCP1 secretion, Values (%)", "setting": "MCP1; 1 mg/ml", "result": "58.8 % of AcMC condition and 67.5 % of AcMC condition and 85.6 % of AcMC condition"},
      {"measurement": "MCP1 secretion, Mean (%)", "setting": "MCP1; 2 mg/ml", "result": "65 % of AcMC condition"},
      {"measurement": "MCP1 secretion, Values (%)", "setting": "MCP1; 2 mg/ml", "result": "62.8 % of AcMC condition and 65.6 % of AcMC condition and 67.5 % of AcMC condition"},
      {"measurement": "MCP1 secretion compared to the AcMC control condition fixed at 100%", "setting": "MCP1; 1 mg/ml", "result": 71, "unit": "%"},
      {"measurement": "MCP1 secretion compared to the AcMC control condition fixed at 100%", "setting": "MCP1; 2 mg/ml", "result": 65, "unit": "%"},
      {"measurement": "Cytotoxicity (LDH release), Mean", "setting": "Human dermal fibroblasts; 0.1 mg/ml", "result": "6.7 percentage of positive control"},
      {"measurement": "Cytotoxicity (LDH release), Values", "setting": "Human dermal fibroblasts; 0.1 mg/ml", "result": "5.9 percentage of positive control and 4.8 percentage of positive control and 6.5 percentage of positive control and 9.8 percentage of positive control"},
      {"measurement": "Cytotoxicity (LDH release), Mean", "setting": "Human dermal fibroblasts; 0.5 mg/ml", "result": "5.6 percentage of positive control"},
      {"measurement": "Cytotoxicity (LDH release), Values", "setting": "Human dermal fibroblasts; 0.5 mg/ml", "result": "7.1 percentage of positive control and 6.6 percentage of positive control and 3.1 percentage of positive control and 5.7 percentage of positive control"},
      {"measurement": "Toxicity on dermal fibroblasts", "setting": "Human dermal fibroblasts; 2 mg/ml, 0.5 mg/ml and 0.1 mg/ml", "result": "No toxicity"},
      {"measurement": "Cytotoxicity (LDH release), Mean", "setting": "Human dermal fibroblasts; 2 mg/ml", "result": "5.1 percentage of positive control"},
      {"measurement": "Cytotoxicity (LDH release), Values", "setting": "Human dermal fibroblasts; 2 mg/ml", "result": "4.2 percentage of positive control and 5.1 percentage of positive control and 5.3 percentage of positive control and 6.0 percentage of positive control"},
      {"measurement": "Protective effect on dermal fibroblasts under classical condition", "setting": "Human dermal fibroblasts; all concentrations", "result": "strong protective effect"}
    ]}
  ]
}
